From patent publication US5281604A, “Angiotensin II receptor blocking 2,3,6-substituted quinazolinones” (American Cyanamid Company, priority 1993, dated 1994)

Biological target: T1, Angiotensin II Receptor (Bos taurus, UniProt P25104)
T1 construct: beef adrenal glands are processed as follows: fresh adrenal glands received on crushed ice are cleaned of fatty tissues; tissue Maxwell-Cohen (local slaughter house); host or cells: beef adrenal cortex, microsomal membranes (100,000×g pellet)
T1 sequence (P25104 1-359): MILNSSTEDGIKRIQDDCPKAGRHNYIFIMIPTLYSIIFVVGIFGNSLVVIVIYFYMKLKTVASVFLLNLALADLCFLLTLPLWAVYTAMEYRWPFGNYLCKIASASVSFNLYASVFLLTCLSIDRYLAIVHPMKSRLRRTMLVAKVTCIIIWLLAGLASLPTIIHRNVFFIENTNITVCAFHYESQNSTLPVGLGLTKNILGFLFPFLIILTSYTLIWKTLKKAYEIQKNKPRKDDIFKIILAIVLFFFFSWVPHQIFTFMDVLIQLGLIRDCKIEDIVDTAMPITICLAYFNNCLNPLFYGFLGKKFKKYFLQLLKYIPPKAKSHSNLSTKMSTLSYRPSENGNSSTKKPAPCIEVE
Experiment: Receptor Binding Assay: displacement of [125I](Sar1,Ile8)AngII from beef adrenal cortex microsomal membranes
Settings: 60 min room temperature
Excerpt: Beef adrenals are obtained from a local slaughter house (Maxwell-Cohen).
[^125 I](Sar^1,Ile^8)AngII, S.A. 2200 Ci/mmole, is purchased from Dupont (NEN®, Boston, Mass.). All unlabeled AngII analogs, Dimethylsulfoxide (DMSO), nucleotides, bovine serum albumin (BSA) are purchased from Sigma Chemical Co., St. Louis, Mo. U.S.A.
Approximately sixteen (16) to twenty (20) beef adrenal glands are processed as follows: fresh adrenal glands received on crushed ice are cleaned of fatty tissues and the tough membranes encapsulating the glands are removed and discarded. The brownish tissue forming the adrenal cortex is scraped off and finely minced with scissors before homogenization. Care is taken to avoid contamination with medullary tissue during dissection. The scraped cortices are suspended in twenty volumes of an ice-cold buffer medium consisting of 10 mM Tris.HCl (pH 7.4 at 22° C.) and containing 1.0 mM EDTA and 0.2M sucrose. Unless otherwise indicated, all subsequent operations are done at 4° C. […] The homogenate is centrifuged first at low speed (3,000×g) for 10 min. The resulting pellet is discarded and the supernatant fluid recentrifuged at 10,000×g for 15 minutes to give a P2 pellet. This P2 pellet is discarded and the liquid phase is carefully decanted off in clean centrifuge tubes and recentrifuged at high speed (100,000×g) for 60 min. The translucent final pellet is harvested and combined in a small volume (20-50.0 ml) of 50.0 mM Tris.HCl buffer, pH 7.2. A 100 ul aliquot is withdrawn and the protein content of the preparation is determined by the Lowry's method (Lowry, O. H., Rosebrough, N. F., Farr, A. L. and Randall, R. J., Protein measurement with Folin phenol reagent. J. Biol. Chem., […], 265-275, 1951). The pelleted membrane is reconstituted in 50.0 mM Tris.HCl buffer containing 0.1 mM of phenylmethylsulfonyl fluoride (PMSF) to give approximately a protein concentration of 2.5 mg per ml of tissue suspension. The membrane preparation is finally aliquoted in 1.0 ml volumes and stored at -70° C. until use in the binding assays.
The binding of [^125 I](Sar^1.Ile^8)AngII to microsomal membranes is initiated by the addition of reconstituted membranes (1:10 vols.) in freshly made 50.0 mM Tris.HCl buffer, pH 7.4 containing 0.25% heat inactivated bovine serum albumin (BSA): 80 ul membrane protein (10 to 20 ug/assay) to wells already containing 100 ul of incubation buffer (as described above) and 20 ul [^125 I](Sar^1,Ile^8)AmgII (Specific Activity, 2200 Ci/mmole) Non-specific binding is measured in the presence of 1.0 uM unlabeled (Sar^1,Ile^8)AngII, added in 20 ul volume. Specific binding for [^125 I](Sar^1,Ile^8) AngII is greater than 90%. In competition studies, experimental compounds are diluted in dimethylsulfoxide (DMSO) and added in 20 ul to wells before the introduction of tissue membranes. This concentration of DMSO is found to have no negative effects on the binding of [^ 125I] (Sar^1,Ile^8) AngII to the membranes. Assays are performed in triplicate. The wells are left undisturbed for 60 min. at room temperature. […] Presoaking the filter sheet in 0.1% polyethyleneimine in normal saline (PEI/Saline) greatly reduces the radioactivity retained by the filter blanks. […] The filters are removed from the filter grid and counted in a Parkard® Cobra Gamma Counder for 1 min. […] The binding data are analyzed by the non-linear interactive "LUNDON-1" program (LUNDON SOFTWARE Inc., Cleveland, Ohio U.S.A.).

Row | IC50 | SMILES
1 | 50 nM | CCCCc1nc2ccc([C@H]3OC[C@H]4[C@@H]3ON3[C@@H]4CCC3(C)C)cc2c(=O)n1Cc1ccc(-c2ccccc2-c2nnn[nH]2)cc1 (relative stereo) [Example 7, (1α, 3aα, 8aβ, 8bα)-2-Butyl-6-(octahydro-6,6-dimethylfuro[3,4-d]pyrrolo[1,2-b]isoxazol-1-yl)-3-[[2'-(1H-tetrazol-5-yl)[1,1'-biphenyl]-4-yl]methyl]-4 (3H)-quinazolinone]
2 | 76 nM | CCCCc1nc2ccc(C3CC4C(O3)ON(c3ccccc3)C4c3ccccc3)cc2c(=O)n1Cc1ccc(-c2ccccc2-c2nnn[nH]2)cc1 (stereo not drawn) [Example 10, (3α, 3aβ, 5β, 6aβ)-2-Butyl-6-(hexahydro-2,3-diphenylfuro[3,2-d]isoxazol-5-yl)-3-[[2'-(1H-tetrazol-5-yl)[1,1'-biphenyl]-4-yl]methyl]-4(3H)-quinazolinone]
3 | 100 nM | CCCCc1nc2ccc(C3CC4C(c5ccc(C)cc5)=NOC4O3)cc2c(=O)n1Cc1ccc(-c2ccccc2-c2nnn[nH]2)cc1 (stereo not shown) [Example 12]
4 | 31.9 nM | CCCCc1nc2ccc(C3CC4C(O3)ON3C4CCC3(C)C)cc2c(=O)n1Cc1ccc(-c2ccccc2-c2nnn[nH]2)cc1 (stereo not shown) [Example 14]
